Laboratory results as given in patent US12116371B2, “Substituted pyridines as irreversible inhibitors of menin-MLL interaction” (BIOMEA FUSION, INC., priority 2018, dated 2024).
pIC50: −log10 of the molar value. Where two headings read alike, the source gives them in different places.

Legend:
MOLM-13 cells = test: Long term proliferation assay, Cell Titer-Glo read-out; type: cell-based, human; settings: for pIC50 / IC50: Homo sapiens; for IC50: read-out: pIC50 (converted)
Procedure: (§1) Compounds of invention are tested in the 5 suspension lines by 14-day long-term proliferation assay.
(§2) The compound is tested in 10-pt dose titration (client will determine the starting concentration and the dilution scheme) and the final DMSO concentration is kept at 0.2%.
(§3) On Day 0, in a flat bottom 96-well plate, add 100 μL of cells per well at the densities optimized. Prepare compounds in DMSO at 500× final concentration. Dilute the compounds with DMSO at the dilution. Dilute the compounds in media at 3× final concentration. Add 50 μL of compound or DMSO at 3× final concentration to each well. Final volume in each well is 150 μL, and final concentration of DMSO is 0.2%. Also include 3 untreated control wells, by adding 50 μL of media alone. Incubate plates for 96 hours.
(§4) To do this take the total viable cell count calculated using step: • 1. Take the average of the replicates for each dose in order to be used in splitting the cells. • 2. Use a 96 well V-bottom plate to spin down the cells to remove old media and compound to split the cells. • 3. Based on the split ratio place the proper amount of media and cells into the V-bottom plate, and spin the plate at 1100 rpm for 5 minutes. • 4. Following the spin remove the media, careful not to disturb the cell pellet. Re-suspend pellet in 100 μL fresh media, and add to a new 96-well flat bottom plate. • 5. Add fresh compound, in the same manner as Step 3). • 6. Incubate plates for 72 hours. Repeat steps 5)-10) on Day 7. • 7. Incubate plates for 96 hours. Repeat Step 5)-10) on Day 11. • 8. Incubate 72 hours and repeat step 5) to take a final count. • 9. Data Analysis
(§5) To calculate growth for days 4, 7, 11, and 14: • 1. Calculate the split factor for day 4 to 7, day 7 to 11, and day 11-14. The split factor is the viable cells/mL on Day X (either 4, 7 or 11) divided by the density the cells are being split back to. • 2. For growth of cells from day 4 to 7, multiply the day 7 viable cells/mL density by the split factor from day 4. • 3. For growth of cells from day 7 to 11, multiply the day 11 viable cells/mL density by the days 4, and 7 split factors. • 4. For growth of cells from Day 11 to 14, multiply the Day 14 viable cells/mL density by the days 4, 7, and 11 split factors. • 5. Plot growth on semi-log chart (viable cells/mL on Y axis, in log, and days on X axis). • 6. The growth inhibition was calculated with the formula ((untreated cell numbers-treated cell numbers)/untreated cell)). • 7. Calculate the IC50 for each compound in each line using XLFit (Sigmoidal Dose-Response Model, y=(Bottom+((Top-Bottom)/(1+((IC50/×)^Hill))))).

MV4-11 cells = test: as above; type: cell-based, human; settings: for pIC50 / IC50: Homo sapiens; for IC50: read-out: pIC50 (converted)
Procedure: as §1, §2, §3, §4, §5

KG-1 cells = test: Long term proliferation assay, InCell read-out; type: cell-based; settings: for pIC50 / IC50: Homo sapiens
Procedure: as §1, §2, §3, §4, §5

OCI-AML-3 cells = test: Long term proliferation assay, InCell read-out; type: cell-based; settings: for pIC50 / IC50: Homo sapiens
Procedure: as §1, §2, §3, §4, §5

MIAPaCa-2 cells = test: Proliferation assay, cells in adhesion; type: cell-based; settings: for pIC50 / IC50: Homo sapiens
MIAPaCa-2/AMG510 cells = test: Proliferation assay, cells in adhesion; type: cell-based; settings: for pIC50 / IC50: Homo sapiens
NCI-H23 cells = test: Proliferation assay, cells in adhesion; type: cell-based; settings: for pIC50 / IC50: Homo sapiens
Panc 10.05 cells = test: Proliferation assay, cells in adhesion; type: cell-based; settings: for pIC50 / IC50: Homo sapiens

In the case of CN(C)C/C=C/C(=O)Nc1ccc(CC(=O)Nc2ccc(-c3cc4c(N5CCOCC5)ncnc4[nH]3)cc2)cc1 [Compound 5], the pIC50 (MOLM-13 cells; MOLM-13, 96 h, MOLM-13, Day 4, Cell Titer-Glo, read-out: Day 4 IC50) was 6.30, the pIC50 (MOLM-13 cells; MOLM-13, 168 h, MOLM-13, Day 7, Cell Titer-Glo, read-out: Day 7 IC50) was 6.47 and the pIC50 (MOLM-13 cells; MOLM-13, 264 h, MOLM-13, Day 11, Cell Titer-Glo, read-out: Day 11 IC50) was 6.46. It also gave a pIC50 (MOLM-13 cells; MOLM-13, 336 h, MOLM-13, Day 14, Cell Titer-Glo, read-out: Day 14 IC50) of 6.44, a pIC50 (MOLM-13 cells; MOLM-13, MOLM-13, T4, CellTiter-Glo, read-out: IC50) of 6.30 and an IC50 (MOLM-13 cells; MOLM-13, MOLM-13, T4, CellTiter-Glo) of 501 nM. The pIC50 (MOLM-13 cells; MOLM-13, MOLM-13, T11, CellTiter-Glo, read-out: IC50) was 6.46, the IC50 (MOLM-13 cells; MOLM-13, MOLM-13, T11, CellTiter-Glo) was 355 nM and the “% max” value (MOLM-13 cells; MOLM-13, T4, CellTiter-Glo) was 98%. The “% max” value (MOLM-13 cells; MOLM-13, T11, CellTiter-Glo) was 99%, the pIC50 (MV4-11 cells; MV4-11, 96 h, MV4-11, Day 4, Cell Titer-Glo, read-out: Day 4 IC50) was 6.44 and the pIC50 (MV4-11 cells; MV4-11, 168 h, MV4-11, Day 7, Cell Titer-Glo, read-out: Day 7 IC50) was 6.85. For the same compound, the pIC50 (MV4-11 cells; MV4-11, 264 h, MV4-11, Day 11, Cell Titer-Glo, read-out: Day 11 IC50) was 6.96, the pIC50 (MV4-11 cells; MV4-11, 336 h, MV4-11, Day 14, Cell Titer-Glo, read-out: Day 14 IC50) was 7.05 and the pIC50 (MV4-11 cells; MV4-11, MV4-11, T4, CellTiter-Glo, read-out: IC50) was 6.44. It also gave an IC50 (MV4-11 cells; MV4-11, MV4-11, T4, CellTiter-Glo) of 363 nM, a pIC50 (MV4-11 cells; MV4-11, MV4-11, T11, CellTiter-Glo, read-out: IC50) of 6.96 and an IC50 (MV4-11 cells; MV4-11, MV4-11, T11, CellTiter-Glo) of 115 nM. The “% max” value (MV4-11 cells; MV4-11, T4, CellTiter-Glo) was 99%, the “% max” value (MV4-11 cells; MV4-11, T11, CellTiter-Glo) was 99% and the pIC50 (KG-1 cells; KG-1, 96 h, KG-1, Day 4, read-out: Day 4 IC50) was under 5.30. For the same compound, the pIC50 (KG-1 cells; KG-1, 264 h, KG-1, Day 11, read-out: Day 11 IC50) was under 5.35, the pIC50 (KG-1 cells; KG-1, KG-1, T4, read-out: IC50) was under 5.30 and the IC50 (KG-1 cells; KG-1, KG-1, T4, read-out: pIC50 (converted)) was over 5010 nM. The pIC50 (KG-1 cells; KG-1, KG-1, T11, read-out: IC50) was 5.35, the IC50 (KG-1 cells; KG-1, KG-1, T11, read-out: pIC50 (converted)) was 4470 nM and the “% max” value (KG-1 cells; KG-1, T4) was under 50%. The “% max” value (KG-1 cells; KG-1, T11) was 52%, the pIC50 (OCI-AML-3 cells; OCI-AML-3, 96 h, OCI-AML-3, Day 4, read-out: Day 4 IC50) was 6.35 and the pIC50 (OCI-AML-3 cells; OCI-AML-3, 264 h, OCI-AML-3, Day 11, read-out: Day 11 IC50) was 6.34. It also gave a pIC50 (OCI-AML-3 cells; OCI-AML-3, OCI-AML3, T4, read-out: IC50) of 6.35, an IC50 (OCI-AML-3 cells; OCI-AML-3, OCI-AML3, T4, read-out: pIC50 (converted)) of 447 nM and a pIC50 (OCI-AML-3 cells; OCI-AML-3, OCI-AML3, T11, read-out: IC50) of 6.34. The IC50 (OCI-AML-3 cells; OCI-AML-3, OCI-AML3, T11, read-out: pIC50 (converted)) was 457 nM, the “% max” value (OCI-AML-3 cells; OCI-AML3, T4) was 100% and the “% max” value (OCI-AML-3 cells; OCI-AML3, T11) was 100%. It also gave a pIC50 (MIAPaCa-2 cells; MIA PaCa-2, MIAPaCa-2, T4, read-out: IC50) of 5.83, an IC50 (MIAPaCa-2 cells; MIA PaCa-2, MIAPaCa-2, T4, read-out: pIC50 (converted)) of 1480 nM and a pIC50 (MIAPaCa-2 cells; MIA PaCa-2, MIAPaCa-2, T7, read-out: IC50) of 6.06. It also gave an IC50 (MIAPaCa-2 cells; MIA PaCa-2, MIAPaCa-2, T7, read-out: pIC50 (converted)) of 871 nM, a pIC50 (MIAPaCa-2 cells; MIA PaCa-2, MIAPaCa-2, T11, read-out: IC50) of 6.28 and an IC50 (MIAPaCa-2 cells; MIA PaCa-2, MIAPaCa-2, T11, read-out: pIC50 (converted)) of 525 nM. For the same compound, the “% max” value (MIAPaCa-2 cells; MIAPaCa-2, T4) was 95%, the “% max” value (MIAPaCa-2 cells; MIAPaCa-2, T7) was 98% and the “% max” value (MIAPaCa-2 cells; MIAPaCa-2, T11) was 99%. For the same compound, the pIC50 (MIAPaCa-2/AMG510 cells; MIA PaCa-2, MIAPaCa-2/AMG510, T4, read-out: IC50) was 6.09, the IC50 (MIAPaCa-2/AMG510 cells; MIA PaCa-2, MIAPaCa-2/AMG510, T4, read-out: pIC50 (converted)) was 813 nM and the pIC50 (MIAPaCa-2/AMG510 cells; MIA PaCa-2, MIAPaCa-2/AMG510, T7, read-out: IC50) was 6.46. It also gave an IC50 (MIAPaCa-2/AMG510 cells; MIA PaCa-2, MIAPaCa-2/AMG510, T7, read-out: pIC50 (converted)) of 347 nM, a pIC50 (MIAPaCa-2/AMG510 cells; MIAPaCa-2/AMG510, T11, read-out: IC50) of 6.57 and an IC50 (MIAPaCa-2/AMG510 cells; MIAPaCa-2/AMG510, T11, read-out: pIC50 (converted)) of 269 nM. For the same compound, the “% max” value (MIAPaCa-2/AMG510 cells; MIAPaCa-2/AMG510, T4) was 92%, the “% max” value (MIAPaCa-2/AMG510 cells; MIAPaCa-2/AMG510, T7) was 98% and the “% max” value (MIAPaCa-2/AMG510 cells; MIAPaCa-2/AMG510, T11) was 99%. For the same compound, the pIC50 (NCI-H23 cells; NCI-H23, NCI-H23, T4, read-out: IC50) was under 5.30, the IC50 (NCI-H23 cells; NCI-H23, NCI-H23, T4, read-out: pIC50 (converted)) was over 5010 nM and the pIC50 (NCI-H23 cells; NCI-H23, NCI-H23, T7, read-out: IC50) was under 5.30. The IC50 (NCI-H23 cells; NCI-H23, NCI-H23, T7, read-out: pIC50 (converted)) was over 5010 nM, the pIC50 (NCI-H23 cells; NCI-H23, NCI-H23, T11, read-out: IC50) was under 5.30 and the IC50 (NCI-H23 cells; NCI-H23, NCI-H23, T11, read-out: pIC50 (converted)) was over 5010 nM. The “% max” value (NCI-H23 cells; NCI-H23, T4) was under 50%, the “% max” value (NCI-H23 cells; NCI-H23, T7) was under 50% and the “% max” value (NCI-H23 cells; NCI-H23, T11) was under 50%. For the same compound, the pIC50 (Panc 10.05 cells; Panc1005, Panc 10.05, T4, read-out: IC50) was under 5.30, the IC50 (Panc 10.05 cells; Panc1005, Panc 10.05, T4, read-out: pIC50 (converted)) was over 5010 nM and the pIC50 (Panc 10.05 cells; Panc1005, Panc 10.05, T7, read-out: IC50) was under 5.30. It also gave an IC50 (Panc 10.05 cells; Panc1005, Panc 10.05, T7, read-out: pIC50 (converted)) of over 5010 nM, a pIC50 (Panc 10.05 cells; Panc1005, Panc 10.05, T11, read-out: IC50) of 5.38 and an IC50 (Panc 10.05 cells; Panc1005, Panc 10.05, T11, read-out: pIC50 (converted)) of 4170 nM. For the same compound, the “% max” value (Panc 10.05 cells; Panc 10.05, T4) was under 50%, the “% max” value (Panc 10.05 cells; Panc 10.05, T7) was under 50% and the “% max” value (Panc 10.05 cells; Panc 10.05, T11) was 50%.
